Data reported in patent US20120178765A1, “NOVEL GLUCOKINASE ACTIVATORS AND PROCESSES FOR THE PREPARATION THEREOF” (YUHAN CORPORATION, priority 2009, published 2012).

target: T1, Glucokinase (Homo sapiens, UniProt P35557); assay: Glucokinase activation assay (NADPH absorbance at 340 nm); format: biochemical; details: glucokinase (ProteinOne Inc.), 5 mM D(+)-glucose, 24° C., 90 minutes
T1 construct: purchased ProteinOne Inc
T1 sequence (P35557 1-465): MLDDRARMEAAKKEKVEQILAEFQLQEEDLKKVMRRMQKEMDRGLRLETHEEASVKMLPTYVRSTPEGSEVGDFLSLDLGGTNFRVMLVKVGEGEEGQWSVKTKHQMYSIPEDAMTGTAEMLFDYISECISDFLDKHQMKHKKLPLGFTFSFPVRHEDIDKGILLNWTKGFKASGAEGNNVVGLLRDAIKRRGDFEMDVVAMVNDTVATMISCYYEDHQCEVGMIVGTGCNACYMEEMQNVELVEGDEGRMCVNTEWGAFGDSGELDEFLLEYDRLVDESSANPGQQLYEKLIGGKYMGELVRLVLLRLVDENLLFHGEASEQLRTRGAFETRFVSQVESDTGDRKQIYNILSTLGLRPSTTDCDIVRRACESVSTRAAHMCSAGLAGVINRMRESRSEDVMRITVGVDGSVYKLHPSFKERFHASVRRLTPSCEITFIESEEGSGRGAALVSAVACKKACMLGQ
Experimental: The amounts of glucokinase activation were determined by measuring the levels of NADPH (the final metabolite of glucose through glucokinase-mediated phospho-rylation) and then calculating to glucokinase activities.
Glucokinase (ProteinOne Inc.) was added, in the concentration of 100 ng/uL, to a enzyme-reaction medium (25 mM HEPES pH 7, 25 mM KCL, 1 mM MgCl, 5 mM D(+)-glucose, 1 mM ATP, 1 mM NADP, 1 mM DTT, and 2.5 u/mL G6PDH). Each compound in predetermined concentrations was added to the enzyme-reaction medium and then absorbance (First Absorbance) was measured at 340 nm of wavelength. After measuring the first absorbance, each reaction mixture was incubated at 24° C. for 90 minutes and then absorbance (Second Absorbance) was re-measured at 340 nm of wavelength. Using changes between First Absorbance and Second Absorbance, glucokinase activity was calculated. In the calculation, a maximum activity of the test compound (Emax), in comparison to the control group (no treatment of compound) was determined and then EC50 was calculated using the software for statistical analysis “Prism”, based on the activity-changes according to concentrations of the test compounds.
The amounts of glucokinase activation of the compounds of Comparative Examples 1 and 2 were determined, in accordance with the same procedures as in Test Example 1.

In order of rising EC50:
1. 3-[trans-2-(3-nitrophenyl)vinyl]-5-(2-methoxy-(1S)-methyl-ethoxy)-N-(thiazol-2-yl)-benzamide [Example 14]  19.4 nM
2. 3-[trans-2-(2,5-difluorophenyl)vinyl]-5-(2-methoxy-(1S)-methyl-ethoxy)-N-(thiazol-2-yl)-benzamide [Example 11]  30.9 nM
3. 3-[2-(2,6-difluorophenyl)ethyl]-5-(2-methoxy-(1S)-methyl-ethoxy)-N-(thiazol-2-yl)-benzamide [Example 87]  34.4 nM
4. 3-[trans-2-(3,5-dimethoxyphenyl)vinyl]-5-(2-methoxy-(1S)-methyl-ethoxy)-N-(5-fluorothiazol-2-yl)-benzamide [Example 31]  47.3 nM
5. 3-[trans-2-(2,3-dimethoxyphenyl)vinyl]-5-(2-methoxy-(1S)-methyl-ethoxy)-N-(thiazol-2-yl)-benzamide [Example 17]  50.4 nM
6. 3-[trans-2-(2-nitrophenyl)vinyl]-5-(2-methoxy-(1S)-methyl-ethoxy)-N-(5-fluorothiazol-2-yl)-benzamide [Example 19]  52.1 nM
7. 3-[trans-2-(2,4-difluorophenyl)vinyl]-5-(2-methoxy-(1S)-methyl-ethoxy)-N-(5-fluorothiazol-2-yl)-benzamide [Example 25]  70.2 nM
8. 3-[trans-2-(2-fluorophenyl)vinyl]-5-(2-methoxy-(1S)-methyl-ethoxy)-N-(1-methyl-1H-pyrazol-3-yl)-benzamide [Example 33]  79.8 nM
9. COC[C@H](C)Oc1cc(/C=C/c2ccccc2OC)cc(C(=O)Nc2ccc(C(=O)O)cn2)c1 [Example 73, 3-[trans-2-(2-methoxyphenyl)vinyl]-5-(2-methoxy-(1S)-methyl-ethoxy)-N-(nicotinic acid-6-yl)-benzamide]  82.8 nM
10. CC(C)COc1cc(/C=C/c2ccccc2F)cc(C(=O)Nc2nccs2)c1 [Example 70, 3-[trans-2-(2-fluorophenyl)vinyl]-5-isobutoxy-N-(thiazol-2-yl)-benzamide]  102 nM
11. COC[C@H](C)Oc1cc(/C=C/c2ccc(F)cc2)cc(C(=O)Nc2ccc(C(=O)O)cn2)c1 [Example 77, 3-[trans-2-(4-fluorophenyl)vinyl]-5-(2-methoxy-(1S)-methyl-ethoxy)-N-(nicotinic acid-6-yl)-benzamide]  120 nM
12. COC[C@H](C)Oc1cc(/C=C/c2cccc(F)c2F)cc(C(=O)Nc2ccc(C(=O)O)cn2)c1 [Example 78, 3-[trans-2-(2,3-difluorophenyl)vinyl]-5-(2-methoxy-(1S)-methyl-ethoxy)-N-(nicotinic acid-6-yl)-benzamide]  123 nM
13. 3-[trans-2-(2,3,5-trifluorophenyl)vinyl]-5-(2-methoxy-(1S)-methyl-ethoxy)-N-(thiazol-2-yl)-benzamide [Example 18]  126 nM
14. 3-[trans-2-(2,6-dimethoxyphenyl)vinyl]-5-(2-methoxy-(1S)-methyl-ethoxy)-N-(5-fluorothiazol-2-yl)-benzamide [Example 29]  128 nM
15. 3-[trans-2-(2,3-difluorophenyl)vinyl]-5-(2-methoxy-(1S)-methyl-ethoxy)-N-(1-methyl-1H-pyrazol-3-yl)-benzamide [Example 34]  132 nM
16. COC[C@H](C)Oc1cc(CCc2ccccc2OC)cc(C(=O)Nc2ccn(C)n2)c1 [Example 93, 3-[2-(2-methoxyphenyl)ethyl]-5-(2-methoxy-(1S)-methyl-ethoxy)-N-(1-methyl-1-pyrazol-3-yl)-benzamide]  135 nM
17. COC[C@H](C)Oc1cc(/C=C/c2cc(OC)cc(OC)c2)cc(C(=O)Nc2ccn(C)n2)c1 (stereo in doubt) [Example 40, 3-[trans-2-(3,5-dimethoxyphenyl)vinyl]-5-(2-methoxy-(1S)-methyl-ethoxy)-N-(1-methyl-1H-pyrazol-3-yl)-benzamide]  174 nM
18. 3-[2-(2,4-difluorophenyl)ethyl]-5-(2-methoxy-(1S)-methyl-ethoxy)-N-(1-methyl-1H-pyrazol-3-yl)-benzamide [Example 96]  184 nM
19. 3-[trans-2-(2,5-difluorophenyl)vinyl]-5-(2-methoxy-(1S)-methyl-ethoxy)-N-(1-methyl-1H-pyrazol-3-yl)-benzamide [Example 36]  200 nM
20. COC[C@H](C)Oc1cc(CCc2cccc(NC(=O)c3ccncc3)c2)cc(C(=O)Nc2nccs2)c1 [Example 128, 3-[2-(3-isonicotinamidephenyl)ethyl]-5-(2-methoxy-(1S)-methyl-ethoxy)-N-(thiazol-2-yl)-benzamide]  200 nM
21. CCOC(=O)Nc1cccc(CCc2cc(O[C@@H](C)COC)cc(C(=O)Nc3nccs3)c2)c1 [Example 122, 3-{2-[3-(carbamic acid ethyl ester)phenyl]ethyl}-5-(2-methoxy-(1S)-methyl-ethoxy)-N-(thiazol-2-yl)-benzamide]  205 nM
22. 3-[2-(3-acetylaminophenyl)ethyl]-5-(2-methoxy-(1S)-methyl-ethoxy)-N-(thiazol-2-yl)-benzamide [Example 118]  208 nM
23. 3-[2-(2-benzenesulfonylaminophenyl)ethyl]-5-(2-methoxy-(1S)-methyl-ethoxy)-N-(thiazol-2-yl)-benzamide [Example 115]  210 nM
24. 3-[2-(2,4-dimethoxyphenyl)ethyl]-5-(2-methoxy-(1S)-methyl-ethoxy)-N-(1-methyl-1H-pyrazol-3-yl)-benzamide [Example 104]  223 nM
25. 3-[trans-2-(2-fluorophenyl)vinyl]-5-(2-methoxy-(1S)-methyl-ethoxy)-N-(pyrazin-2-yl)-benzamide [Example 51]  238 nM
26. 3-{2-[4-(phenylacetylamino)phenyl]ethyl}-5-(2-methoxy-(1S)-methyl-ethoxy)-N-(thiazol-2-yl)-benzamide [Example 137]  270 nM
27. CCOC(=O)Nc1ccc(CCc2cc(O[C@@H](C)COC)cc(C(=O)Nc3nccs3)c2)cc1 [Example 136, 3-{2-[4-(carbamic acid ethyl ester)phenyl]ethyl}-5-(2-methoxy-(1S)-methyl-ethoxy)-N-(thiazol-2-yl)-benzamide]  270 nM
28. 3-[2-(4-benzoylaminophenyl)ethyl]-5-(2-methoxy-(1S)-methyl-ethoxy)-N-(thiazol-2-yl)-benzamide [Example 138]  292 nM
29. COC[C@H](C)Oc1cc(/C=C/c2ccccc2[N+](=O)[O-])cc(C(=O)Nc2ccc(C(=O)O)cn2)c1 [Example 74, 3-[trans-2-(2-nitrophenyl)vinyl]-5-(2-methoxy-(1S)-methyl-ethoxy)-N-(nicotinic acid-6-yl)-benzamide]  296 nM
30. 3-[2-(4-methoxyphenyl)ethyl]-5-(2-methoxy-(1S)-methyl-ethoxy)-N-(1-methyl-1H-pyrazol-3-yl)-benzamide [Example 100]  314 nM
31. 3-{2-[4-(3-methyl-butyrylamino)phenyl]ethyl}-5-(2-methoxy-(1S)-methyl-ethoxy)-N-(thiazol-2-yl)-benzamide [Example 134]  355 nM
32. 3-[trans-2-(4-methoxyphenyl)vinyl]-5-(2-methoxy-(1S)-methyl-ethoxy)-N-(pyrazin-2-yl)-benzamide [Example 49]  381 nM
33. CC(C)Oc1cc(/C=C/c2ccccn2)cc(C(=O)Nc2ccc(C(=O)O)cn2)c1 [Comparative Example 1, reference compound]  2450 nM
